Measurements: patent publication US5376679A, “Bicyclic or tricyclic biocidal compounds” (Shell Internationale Research Maatschappij B.V., priority 1988, dated 1994)
Converted amounts (≈) assume the structure as drawn.

Assays:
[1] = tested on: Pseudocercosporella herpotrichoides; assay: In vitro activity against wheat eyespot (Ph); format: cell-based; design: Ph: activity against wheat eyespot: scale not given here; details: in vitro, 100 ppm in agar, 11 days; activity grade 1 or 2, not defined
Summary of the method: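 Compound was dispersed from acetone into half-strength potato dextrose agar at 100 ppm final. Two 5 mm mycelial plugs were placed on each plate, which was incubated 11 days at 20–22 °C in darkness. Diametric growth minus plug width was compared with acetone-only agar.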

Fusarium culmorum = assay: Activity against seedling wheat blight, soil drench (Fs); format: in vivo; design: scale not given here; details: 10 kg/ha, 21 days, activity grade 1 or 2, not defined
Summary of the method: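 Wheat seeds (var Waggoner) soaked 6 h at 22° C in 7×10^5 spores/ml, sown in sand; 1 day later soil drench at 10 kg/ha (0.36 g/l in 12% v/v acetone/water). Glasshouse at 25° C; at 21 days, stem-base and upper-root lesions scored visually against control seedlings.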

Staphylococcus aureus = assay: Minimum inhibitory concentration, Staphylococcus aureus (Sa); format: cell-based, Staphylococcus aureus (NCIB 6571); details: 30° C., 24 and 72 hours
Description: (§1) In respect of S. aureus, B. subtilis and E. coli, the microorganisms were cultured in 50 ml aliquots of a tryptone soya broth in 250 ml conical flasks at 30° C. on a rotary shaker at 200 rpm for 24 hours. Tryptone soya broth was prepared by adding 17 g pancreatic digest of casein, 3 g […] digest of soyabean meal, 5 g of sodium chloride, 2.5 g of dipotassium hydrogen phosphate and 2.5 g of dextrose to 1 liter of distilled water, mixing and sterilising by autoclaving at 121° C. for 15 minutes. 1 ml aliquots of the resulting cultures were mixed with 99 ml of fresh tryptone soya broth and used as inocula for tests. […] Test procedures were as follows: (ii) Dilution Series for Other Test Bacteria, Yeast and Filamentous Fungi Dilution series from the stock solution of each compound were prepared in sterile distilled water. These contained 50, 100, 500 and 1000 ppm compound. To duplicate wells of a compartmentalised square petri dish 0.3 ml of each test compound concentration was added together with 2.7 ml of one of the microbial inocula described above. […] After incubation, in the dark, at 30° C. the wells were examined for the presence or absence of growth. Bacterial and yeast cultures were examined after 24 hours and 72 hours incubation and the fungi cultures after 3, 7 and 10 days. By means of the above tests minimum inhibitory concentrations were determined for the various test compounds.

Bacillus subtilis = assay: Minimum inhibitory concentration, Bacillus subtilis (Bs); format: cell-based; details: 30° C., 24 and 72 hours
Description: as §1

Escherichia coli = assay: Minimum inhibitory concentration, Escherichia coli (Ec); format: cell-based, Escherichia coli (NCIB 9517); details: 30° C., 24 and 72 hours
Description: as §1

Desulfovibrio sp. = assay: Minimum inhibitory concentration, sulphate-reducing bacteria (Dsp); format: cell-based; details: 30° C., 2, 5 and 10 days
Description: The sulphate reducing bacteria Desulfovibrio sp. were cultured in a modified Postgate's Medium B for 48 hours at 30° C. and used directly as an inoculum. The modified Postgate's Medium B consisted of 0.5 g dipotassium hydrogen phosphate, 1 g ammonium chloride, 1 g sodium sulphate, 5 g sodium lactate, 1 g yeast extract, 0.1 ml thioglycolic acid, 0.1 ml ascorbic acid, 0.5 g ferrous sulphate heptahydrate, 750 ml aged seawater and 250 ml distilled water, pH adjusted to 7.8, divided into aliquots and sterilised by autoclaving at 121° C. for 15 minutes. […] Test procedures were as follows: (i) Suphate-reducing Bacteria Test Dilution Series Duplicate aliquots (9.9 ml) of dilution series from the stock solutions of each compound were prepared in a modified Postgate's Medium B described above. These contained 100 ppm compound. These were then inoculated with 0.1 ml of inoculum. After incubation at 30° C., the presence or absence of growth--as indicated by a blackening of the medium due to ferrous sulphide production--was recorded at 2, 5 and 10 days. […] By means of the above tests minimum inhibitory concentrations were determined for the various test compounds.

Saccharomyces cerevisiae = assay: Minimum inhibitory concentration, yeast (Sc); format: cell-based, Saccharomyces cerevisiae (ATCC 9763); details: 30° C., 24 and 72 hours
Description: Inocula of S. cerevisiae were prepared as for S. aureus, B. subtilis and E. coli, but using yeast malt broth in place of the typtone soya broth. The yeast malt broth was prepared by suspending 3 g yeast extract, 3 g malt extract, 5 g peptone and 10 g dextrose in 1 liter of distilled water, warming to achieve solution and sterilising by autoclaving at 121° C. for 15 minutes.
(§2) Test procedures were as follows:
(§3) (ii) Dilution Series for Other Test Bacteria, Yeast and Filamentous Fungi
(§4) Dilution series from the stock solution of each compound were prepared in sterile distilled water. These contained 50, 100, 500 and 1000 ppm compound. To duplicate wells of a compartmentalised square petri dish 0.3 ml of each test compound concentration was added together with 2.7 ml of one of the microbial inocula described above. This gave final concentrations of the test compound of 5, 10, 50 and 100 ppm.
(§5) After incubation, in the dark, at 30° C. the wells were examined for the presence or absence of growth. Bacterial and yeast cultures were examined after 24 hours and 72 hours incubation and the fungi cultures after 3, 7 and 10 days.
(§6) By means of the above tests minimum inhibitory concentrations were determined for the various test compounds.

Aspergillus niger = assay: Minimum inhibitory concentration, Aspergillus niger (An); format: cell-based, Aspergillus niger (CMI 17454); details: 30° C., 3, 7 and 10 days
Description: (§7) Inocula of the fungi Aspergillus niger, Cladosporium resinae and Chaetomium globosum were prepared containing 5×10^5 conidia/ml in a potato dextrose broth. The potato dextrose broth was prepared by suspending 4 g potato extract and 20 g dextrose in 1 liter of distilled water, warming to achieve solution, separating into aliquots and sterilising by autoclaving at 121° C. for 15 minutes.
as §2, §3, §4, §5, §6

Cladosporium resinae = assay: Minimum inhibitory concentration, Cladosporium resinae (Cr); format: cell-based; details: Amorphotheca resinae, 30° C., 3, 7 and 10 days
Description: as §7, §2, §3, §4, §5, §6

Chaetomium globosum = assay: Minimum inhibitory concentration, Chaetomium globosum (Chg); format: cell-based
Description: as §7, §2, §3, §4, §5, §6

| SMILES | Ph: activity against wheat eyespot [1] | Fs: activity against seedling wheat blight (Fusarium culmorum) | MIC (Staphylococcus aureus) [µg/mL] | MIC (Bacillus subtilis) [µg/mL] | MIC (Escherichia coli) [µg/mL] | MIC (Desulfovibrio sp.) [µg/mL] | MIC (Saccharomyces cerevisiae) [µg/mL] | MIC (Aspergillus niger) [µg/mL] | MIC (Cladosporium resinae) [µg/mL] | MIC (Chaetomium globosum; 30° C., 3, 7 and 10 days) [µg/mL] | MIC (Chaetomium globosum; *only tested at 100 ppm) [µg/mL] |
| --- | --- | --- | --- | --- | --- | --- | --- | --- | --- | --- | --- |
| CC1Oc2c(cccc2[N+]([O-])=NC#N)C1C (stereo not drawn) [Example 9] | 2 | 2 | > 100 | 50 (≈ 230 µM) | > 100 | 100 (≈ 460 µM) | 50 (≈ 230 µM) | 25 (≈ 115 µM) | 25 (≈ 115 µM) | 50 (≈ 230 µM) |  |
| Cc1cc2cccc([N+]([O-])=NC#N)c2o1 [Example 16] | 1 | 1 | > 100 | > 100 | > 100 | 50 to 100 (≈ 249 to 497 µM) | 100 (≈ 497 µM) | 50 (≈ 249 µM) | > 100 |  |  |
| CC1Oc2c(cc(Cl)cc2[N+]([O-])=NC#N)C1C (stereo not drawn) [Example 5] | 2 | 2 | > 100 | 100 (≈ 397 µM) | > 100 | > 100 | 50 (≈ 199 µM) | 10 (≈ 39.7 µM) | 25 (≈ 99.3 µM) | 5 to 25 (≈ 19.9 to 99.3 µM) |  |
| CC1(C)Cc2cc(Cl)cc([N+]([O-])=NC#N)c2O1 [Example 4] | 2 | 2 | 100 (≈ 397 µM) | 50 (≈ 199 µM) | > 100 | > 100 | > 100 | 100 (≈ 397 µM) | 25 (≈ 99.3 µM) | > 100 |  |
| CC1Cc2cc(Cl)cc([N+]([O-])=NC#N)c2O1 (stereo not drawn) [Example 6] | 2 | 2 | 100 (≈ 421 µM) | 100 (≈ 421 µM) | > 100 | 100 (≈ 421 µM) | 25 (≈ 105 µM) | 25 (≈ 105 µM) | 25 (≈ 105 µM) | 25 (≈ 105 µM) |  |
| Cc1oc2c([N+]([O-])=NC#N)cccc2c1C [Example 18] | 1 | 2 | 5 (≈ 23.2 µM) | > 100 | > 100 | > 100 | 100 (≈ 465 µM) | 100 (≈ 465 µM) | 100 (≈ 465 µM) | 100 (≈ 465 µM) |  |
| Cc1cc2cc([N+]([O-])=NC#N)ccc2o1 [Example 23] | 1 | 2 | > 100 | 50 (≈ 249 µM) | > 100 | 100 (≈ 497 µM) | 25 (≈ 124 µM) | 25 (≈ 124 µM) | 25 (≈ 124 µM) |  | < 100 |
| N#CN=[N+]([O-])c1cc(Cl)cc2c1OCC=C2 [Example 26] | 1 | 2 | 100 (≈ 424 µM) | 50 (≈ 212 µM) | > 100 | 100 (≈ 424 µM) | > 100 | 25 to 50 (≈ 106 to 212 µM) | 25 to 100 (≈ 106 to 424 µM) | 50 (≈ 212 µM) |  |
| N#CN=[N+]([O-])c1cc(Cl)cc2c1OC(CO)C2 (stereo not drawn) [Example 11] | 2 | 2 | 100 (≈ 394 µM) | 25 (≈ 98.6 µM) | 100 (≈ 394 µM) | 100 (≈ 394 µM) | 100 (≈ 394 µM) | 25 (≈ 98.6 µM) | 50 (≈ 197 µM) | 25 (≈ 98.6 µM) |  |
| CC1(C)C=Cc2cc(F)cc([N+]([O-])=NC#N)c2O1 [Example 29] | 2 | 2 | > 100 | 100 (≈ 404 µM) | > 100 | > 100 | 50 (≈ 202 µM) | 25 to 100 (≈ 101 to 404 µM) | 50 to 100 (≈ 202 to 404 µM) | 5 to 100 (≈ 20.2 to 404 µM) |  |
| N#CN=[N+]([O-])c1cccc2c3c(oc12)CCCC3 [Example 17] | 1 | 2 | 100 (≈ 415 µM) | > 100 | > 100 | > 100 | 50 (≈ 207 µM) | < 5 | 25 (≈ 104 µM) | < 100 |  |
| N#CN=[N+]([O-])c1cc(Cl)cc2c1OC(CCl)C2 (stereo not drawn) [Example 10] | 2 | 2 | > 100 | > 100 | > 100 | 100 (≈ 368 µM) | > 100 | 25 (≈ 91.9 µM) | 25 (≈ 91.9 µM) |  | < 100 |
| N#CN=[N+]([O-])c1ccc2oc(=O)ccc2c1 [Example 1] | 2 | 2 | > 100 | 50 (≈ 232 µM) | > 100 | 25 (≈ 116 µM) | 5 to 25 (≈ 23.2 to 116 µM) | 25 (≈ 116 µM) | 25 to 50 (≈ 116 to 232 µM) | 10 (≈ 46.5 µM) |  |
